Experimental data: paper PMC10673258, “Taxifolin as a Metallo-β-Lactamase Inhibitor in Combination with Augmentin against Verona Imipenemase 2 Expressing Pseudomonas aeruginosa” (Microorganisms, 2023)
“And” between values parts separate entries of the source, which are not always exact repeats. Equal values may be shown once. Read-outs that look alike come from different tables or passages of the source.

Legend:
VIM-2 = target: T1, VIM-2 (Pseudomonas aeruginosa, UniProt Q9K2N0); assay: VIM-2 enzyme kinetics with nitrocefin, competitive inhibition model; assay type: biochemical
T1 construct: The activity of purified VIM-2 was measured spectrophotometrically; made in house
Method: Nitrocefin was used as the substrate, as it is a chromogenic cephalosporin. The activity of purified VIM-2 was measured spectrophotometrically (Cytation 3, BioTek, Winooski, VT, USA) in a potassium phosphate buffer (PBS, pH = 7.4, prepared according to a published recipe).

[1] = tested on: PAX5VIM-2 (VIM-2 expressing bioluminescent PA); assay: MIC assay against PAX5VIM-2 (CLSI, MHB-2); assay type: cell-based, Pseudomonas aeruginosa
Method: MIC assays were carried out following the Clinical and Laboratory Standards Institute (CLSI) established guidelines using MHB-2 and bacterial concentrations of 5 × 10^5 CFU/mL [57, 58]. A varying concentration of quercetin derivatives or conventional antibiotics was dissolved in the media with bacteria cells. The resulting suspensions were transferred to a 96-well microliter plate at 200 μL/well (triplicate for each compound). The plate was then incubated overnight at 37 °C. The MIC was determined as the concentration at which no growth was observed.

PAX5-WT = assay: Single dose inhibition against SBL-producing PAX5-WT; assay type: cell-based, Pseudomonas aeruginosa; settings: amoxicillin 25 μM; amoxicillin:taxifolin 1:1; QATC 2:1:2
Method: Bacteria were diluted to 5 × 10^5 CFU/mL in MH broth (MHB). A growth control containing only bacteria and a negative control containing only MHB were added. Test wells were treated with either 25 µM meropenem, ceftazidime, amoxicillin, or doripenem, as well as 1:1 combinations of the previous antibiotics with vaborbactam. Each set was repeated in triplicate, and the final viability was determined in reference to the growth control.
Supplementary Figure S9. Single dose inhibition of taxifolin against SBL-producing PAX5-WT. Concentration of amoxicillin was 25 μM for all samples. The molar ratio of the augmentin was 2:1 (amoxicillin:clavulanate); the molar ratio of the amoxicillin:taxifolin was 1:1; the molar ratio of the QATC was 2:1:2 (amoxicillin:clavulanate:taxifolin).
Supplementary Figure S10. […]

[2] = Toxicity against wild type human HEK 293T cells; assay type: cell-based; settings: HEK293T cells (wild type); quercetin analogs alone; human kidney cell line HEK293T
[3] = parameters: method as in PMID 27864057; settings: read-out: Kd (Zn binding); cited from earlier work
HEK 293T cells = assay: Toxicity against wild type human HEK 293T cells; assay type: cell-based; settings: quercetin analogs alone; human kidney cell line HEK293T
[4] = inhibitor fixed at 500 μM, nitrocefin 5 to 100 μM, PBS pH 7.4, 10 min pre-incubation, read-out: VIM-2, Ki
[5] = quercetin analogs in combination with augmentin (2:1 molar amoxicillin:clavulanate), PAX5VIM-2

Molecule: O=c1c(O)c(-c2cc(O)c(O)c(O)c2)oc2cc(O)cc(O)c12 [compound 3]
- Ki (VIM-2; [4]): 42 ± 1 µM
- MIC [1, 5]: 9.4 µg/mL

Molecule: COc1ccc(-c2cc(=O)c3c(O)cc(O)cc3o2)cc1O [compound 12]
- MIC [1, 5]: 7.5 µg/mL

Molecule: O=C1c2c(O)cc(O)cc2OC(c2ccc(O)c(O)c2)C1O (stereo not drawn) [compound 5, taxifolin]
- benefit in the killing of SBL-only PAX5-WT (PAX5-WT): unable to provide any significant benefit in the killing
- CC50 [2]: > 200 µM
- Ki (VIM-2; [4]): 8 ± 1 µM
- concentration inhibiting VIM-2 expressing P. aeruginosa cell proliferation ([1]; as part of a triple combination with amoxicillin and clavulanate): < 4 µg/mL
- MIC [1, 5]: 3.1 µg/mL

Molecule: O=C(O)[C@H]1O[C@@H](Oc2cc(O)c3c(=O)cc(-c4ccc(O)c(O)c4)oc3c2)[C@H](O)[C@@H](O)[C@@H]1O [11b]
- CC50 [2]: 182 µM
- Ki (VIM-2; [4]): 52 ± 9 µM
- MIC [1, 5]: 11.6 µg/mL

Molecule: O=c1c(O)c(-c2ccc(O)c(O)c2)oc2cc(O)c(O)c(O)c12 [compound 4, quercetagetin]
- Ki (VIM-2): 13 ± 2 µM
- MIC [1, 5]: 3.9 µg/mL

Molecule: COc1ccc(-c2oc3cc(OC)c(OC)c(O)c3c(=O)c2OC)cc1O [compound 13]
- CC50 [2]: > 200 µM
- MIC [1, 5]: 9.4 µg/mL

Molecule: O=c1cc(-c2ccc(O)c(O)c2)oc2cc(O)cc(O)c12 [11a]
- CC50 [2]: 175 µM
- Ki (VIM-2; [4]): 36 ± 2 µM
- MIC [1, 5]: 7.2 µg/mL

Molecule: O=c1c(O)c(-c2ccc(O)c(O)c2)oc2cc(O)cc(O)c12 [1a, quercetin]
- Ki (VIM-2; [4]): 41 ± 4 µM
- Kd [3]: ~100 µM

Molecule: CC1(C)S[C@@H]2[C@H](NC(=O)[C@H](N)c3ccc(O)cc3)C(=O)N2[C@H]1C(=O)O [amoxicillin, reference compound]
- MIC ([1]; Pseudomonas aeruginosa, read-out: MIC of amoxicillin): 100 µM and 36 µg/mL

Molecule: O=c1cc(-c2ccc(O)c(O)c2)oc2c(C3OC(CO)C(O)C(O)C3O)c(O)cc(O)c12 (stereo not drawn) [1d]
- Ki (VIM-2; [4]): 34 ± 4 µM

Molecule: chrysoeriol [compound 14]
- CC50 (HEK 293T cells): > 200 µM
- MIC [1, 5]: 7.6 µg/mL
